Measurements: US10575543B2, “Acetaldehyde precursors” (Firmenich SA, priority 2014, dated 2020)

Columns and labels:
[1] = Assessment of hydrolysis rate at pH 3.0 (acetaldehyde release, UV absorbance at 276 nm); type: physicochemical; settings: pH 3.0 buffer
Method: Instant beverage applications require rapid hydrolysis of the precursor molecules in order to rapidly release acetaldehyde. Because such beverages might be consumed immediately upon preparation, it is desired for the release to be as rapid as possible.
A pH 3.0 buffer solution was prepared by adding 16.43 g citric acid (CAS 77-92-9) and 4.26 g disodium citrate (CAS 144-33-2) to 1 L of deionized water. Aliquots of the Example 1-2 preparations were added to the buffer solution within a Distek 2100B USP 2 dissolution system stirring at 200 rpm. The concentration of acetaldehyde in solution was monitored as a function of time using a UV/V is spectrometer probe which measured absorbance at 276 nm every 1 second. Results for comparative samples were taken from work by Gassenmeier et al..

[2] = Assessment of hydrolysis rate under spray drying feed conditions (pH 8.0 buffer/limonene emulsion); type: physicochemical; settings: pH 8.0 phosphate buffer; for t50 at pH 8.0: precursor dissolved in limonene, emulsion, time to 50% of maximum absorbance
Method: Acetaldehyde precursors suitable for rendering into dry powders must avoid releasing significant levels of acetaldehyde during various stages of processing. In particular they should resist hydrolysis during the preparation of a spray drying feed emulsion, which can be neutral to basic pH and can contain a significant volume fraction of an oil phase.
A pH 8.0 buffer solution was prepared by adding 49.92 g disodium phosphate heptahydrate (CAS 7782-85-6) and 1.93 g monosodium phosphate (CAS 7558-80-7) to 1 L of deionised water. Aliquots of 0.20 g the Example 1-2 preparations were dissolved in 0.8 g of limonene (CAS 5989-25-7) added to 10 g of the buffer solution within a 30 mL Erlenmeyer flask containing a stir bar. The concentration of acetaldehyde in solution was monitored as a function of time using a UV/V is spectrometer probe measuring absorbance at 276 nm. Stirring was periodically stopped to allow oil droplets to rise to the surface and collect an unobscured absorbance reading of the aqueous solution. Release followed mixed zero and first order kinetics. t50 (the time to 50% of the maximum absorbance) values are reported in Table 2. […] Comparative Sample 1 has t50 of 2.1 minutes, which is so short that a person skilled in the art would consider this compound at risk of experiencing a problematic degree of hydrolysis during processing. Example 1 has a much longer t50 value and released acetaldehyde more slowly than Comparative Sample 1.

| t50 at pH 8.0 [2] | t50 ([2]; limonene emulsion) [min] | SMILES | Rate of acetaldehyde release compared with comparative samples [1] | Increase in absorbance at 276 nm (release of acetaldehyde) ([2]; limonene emulsion, over 1 hour) |
| --- | --- | --- | --- | --- |
| >>1 hour |  | C=CC1(C)CCC(C(C)(C)OC(C)OCC)O1 (centres unmarked) [Example 1, 5-(2-(1-ethoxyethoxy)propan-2-yl)-2-methyl-2-vinyltetrahydrofuran] | released acetaldehyde faster than Comparative Samples 2-5 | no measurable increase in absorbance over 1 hour |
| 2.1 min | 2.1 | CCOC(C)OC(C)=O (centres unmarked) [Comparative Sample 1, 1-ethoxyethyl acetate, reference compound] |  |  |
